What all share (experiment): inhibition of tumour cell growth, NCI panel, 48 h
Assay [1] has as its system LXFL 529.
In assay [2] the test system is M19-MEL.
Assay [3] has as its system RXF 631.
In assay [4] the test system is BT-549.
For assay [5], the system named is Hs-578T.
Assay [6] concerns MCF7.
In assay [7] the test system is MDA-MB-231.
In assay [8] the test system is MDA-N.
Assay [9] relates to T47D.

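Where inhibition never reached the appropriate level, the endpoint shown equals the highest concentration tested. Otherwise, values were interpolated linearly from a five-concentration, 48-hour dose response in 96-well plates. GI50 is the concentration that inhibits growth by half.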 Calls of active or inactive are those of the source. Rule as the data show it: active = GI50 up to about 1.1 µM and inactive = higher. Some results are limits rather than exact numbers.

Consider `Cc1c(OC(C)C(=O)O)ccc2c(-c3ccccc3)cc(=O)oc12` (centres undefined), for which the GI50 in assay [1], in [2] and in assay [3] was > 100 µM (inactive) throughout.

As for `CC(C)C(=O)Cc1ccc2ccccc2n1`, the GI50 in [4] was > 100 µM (inactive); in [5], > 100 µM (inactive); in assay [6], > 100 µM (inactive); in assay [7] it was > 100 µM (inactive); in assay [8] it was 55.2 µM (inactive); in assay [9], > 100 µM (inactive).

On to `COc1ccc(-c2cs/c(=N\c3ccccc3)n2CCCN(C)C)cc1`, for which the figures for the GI50 in assay [4], in assay [7] and in assay [8] were 19.2 µM (inactive), 44.2 µM (inactive) and 30.6 µM (inactive), respectively.

`CCN(CC)CCO[Si](OCCN(CC)CC)(OCCN(CC)CC)OCCN(CC)CC`: the GI50 in assay [2] and in [3] was > 100 µM (inactive) throughout.

In the case of `Cc1cc(C)nc(NS(=O)(=O)c2ccc(NC(=O)c3cccc4c(Nc5ccc(S(=O)(=O)Nc6cc(C)on6)cc5)c5ccccc5nc34)cc2)n1`, the GI50 in assay [1] was 16.1 µM (inactive); in assay [2] it was 26 µM (inactive).

Turning to `O=C(Nc1ccc(Cl)c(Cl)c1)C(=O)C(C(=O)c1ccccc1F)C1OC(=O)c2ccccc21` (centres undefined), the figures for the GI50 in assay [1] and in assay [2] were 17.6 µM (inactive) and 14.6 µM (inactive), respectively.

Turning to `CC1(Br)S(=O)(=O)OCCOS1(=O)=O`, the GI50 in [1] and in assay [2] was > 100 µM (inactive) in each case.

`NC(=O)OCC(COc1ccc(Cl)cc1)OC(=O)c1cc([N+](=O)[O-])cc([N+](=O)[O-])c1` (centres undefined): the GI50 in [1] and in assay [3] was > 100 µM (inactive) each time.

Turning to `ON(Cc1ccccc1)C(=S)c1ccccc1`, the GI50 in assay [4] was 39.2 µM (inactive); in assay [5] it was > 100 µM (inactive); in [1], 1.66 µM (inactive); in assay [2] it was 6.58 µM (inactive); in assay [6] it was 3.28 µM (inactive); in assay [7], 21.4 µM (inactive). Also, the results for the GI50 in assay [8], in assay [3] and in [9] were 6.81 µM (inactive), 5.38 µM (inactive) and 5.9 µM (inactive), respectively.

With `COc1ccc2c(c1)OC(c1ccccc1O)CC2=O` (centres undefined), in [1], the GI50 was 21.7 µM (inactive).

On to `N=c1n(C(=O)N2CCCC2)c2cc(Cl)ccc2n1C1=NCCN1`, for which the GI50 in assay [4] is 60.1 µM (inactive); in assay [5], > 100 µM (inactive); in assay [6] it was 35.8 µM (inactive); in [7], 67.9 µM (inactive); in assay [8], 61.8 µM (inactive); in assay [9], 24.2 µM (inactive).

`C=CCCON(C(=O)OC(C)(C)C)c1ccccc1`: the GI50 in [4] is > 100 µM (inactive); in [5], > 100 µM (inactive); in [7] it was > 100 µM (inactive); in assay [8], > 100 µM (inactive); in [9], 95.1 µM (inactive).

On to `COc1ccc(NC(=O)C(=O)NNC(=O)c2sc(NNC(C)=O)nc2C)c([N+](=O)[O-])c1`, for which the GI50 is 34.8 µM (inactive) in [1] and > 100 µM (inactive) in [2].

As to `O=C1C(Cl)C2(CC(/C=C/c3cccs3)=NN2c2cccc(S(=O)(=O)O)c2)N1c1nc2ccccc2s1` (centres undefined), the GI50 in assay [4] is 55.6 µM (inactive); in assay [5], > 100 µM (inactive); in assay [6] it was 46.6 µM (inactive); in assay [7], > 100 µM (inactive); in assay [8], > 100 µM (inactive); in [9] it was 13.6 µM (inactive).

Regarding `C#CCN(Cc1ccc2nc(-c3ccccc3)c(Cl)nc2c1)c1ccc(F)cc1`, the GI50 in [4] is > 100 µM (inactive); in assay [5], > 100 µM (inactive); in assay [6], 63.8 µM (inactive); in [7], > 100 µM (inactive); in assay [8], > 100 µM (inactive); in assay [9], 38 µM (inactive).

In the case of `NCC(Cl)C(O)c1c[nH]c(N)n1` (centres undefined), the GI50 in assay [2] was 2.52 µM (inactive); in assay [6], 2.77 µM (inactive).

Consider `O=C(NC(Cc1ccc(Cl)cc1)C(=O)O)c1ccc(I)cc1` (centres undefined), for which the GI50 in assay [2] was > 100 µM (inactive); in assay [6] it was > 67 µM (inactive).

On to `CCOC(=O)C1(C#N)C(c2ccccc2)CC(O)(c2ccc(OC)cc2)C(C(=O)c2ccc(OC)cc2)C1c1ccccc1` (centres undefined), for which the GI50 in [1] and in [2] was > 100 µM (inactive) in each case.

Consider `Brc1cc(CCOC2CCCCO2)c(-c2sccc2CCOC2CCCCO2)s1` (centres undefined), for which the GI50 in assay [4] was 49.7 µM (inactive); in [5], 13.9 µM (inactive); in assay [6], 20.3 µM (inactive); in [7] it was > 100 µM (inactive); in [8], 40.3 µM (inactive); in assay [9], > 100 µM (inactive).

Take `CC1CC(c2ccccc2)=Nc2ccccc2S1` (centres undefined): the GI50 in [1] was > 100 µM (inactive); in assay [2], 97.3 µM (inactive); in assay [3] it was > 100 µM (inactive).

`CCc1ncc(C(C)(O)c2ccccc2)n1Cc1ccccc1` (centres undefined): the GI50 in assay [4] was 45.3 µM (inactive); in assay [5], 33.4 µM (inactive); in [6] it was 67.8 µM (inactive); in assay [7], 29.3 µM (inactive); in assay [9], 73.6 µM (inactive).

Regarding `CC(C)CCNc1ncnc2[nH]ncc12`, the GI50 was > 100 µM (inactive) in assay [4]; 46.7 µM (inactive) in [5]; 72.8 µM (inactive) in assay [6]; > 100 µM (inactive) in [7]; 64.7 µM (inactive) in assay [8]; 45.7 µM (inactive) in assay [9].

As to `Cn1c(=O)c(Cl)c(N=[N+]=[N-])c2ccccc21`, the GI50 in assay [5] is > 100 µM (inactive); in assay [6] it was 67.3 µM (inactive); in [7], 60.5 µM (inactive); in assay [8], 84.1 µM (inactive); in [9] it was 64 µM (inactive).

With `CC1=CC(=O)CC2(C)CCC(C(C)CC(=O)CC(C)C)CC12` (centres undefined), the GI50 was > 100 µM (inactive) in assay [5], 25.6 µM (inactive) in assay [6] and 42.8 µM (inactive) in assay [7].

Consider `CC(O)(P(=O)(O)O)P(=O)(O)OCC(O)CN1CCOCC1` (centres undefined), for which the GI50 in [4], in assay [5], in assay [6], in assay [7] and in [8] was > 100 µM (inactive) each time.

Regarding `CCCCCCCc1cscc1-c1cscc1Br`, the GI50 was > 100 µM (inactive) in assay [4]; 34.8 µM (inactive) in assay [6]; 52.2 µM (inactive) in [7]; 35.8 µM (inactive) in [8]; 24.2 µM (inactive) in [9].

Take `C=CCNC(=O)N(CCC)CCCC(NC(C)=O)C(=O)NCc1ccccc1` (centres undefined): the GI50 in assay [1], in assay [2] and in assay [3] was > 100 µM (inactive) in each case.

Regarding `CC(C)C1=C(O)C(=O)C2=C(C1=O)C(OC=O)C(O)C1C(C)(C)CCCC21C` (centres undefined), the GI50 in [4] was 8.36 µM (inactive); in [5] it was 8.51 µM (inactive); in assay [6] it was 11.4 µM (inactive); in [7], 5.79 µM (inactive); in [8] it was 7.31 µM (inactive); in assay [9], 8.24 µM (inactive).

As to `O=c1oc2ccc(-n3c(=O)c4ccccc4c4ccccc4c3=O)cc2c2ccccc12`, the GI50 is 57.1 µM (inactive) in assay [4]; 27 µM (inactive) in assay [5]; > 100 µM (inactive) in assay [6]; > 100 µM (inactive) in assay [7]; > 100 µM (inactive) in [8]; > 100 µM (inactive) in assay [9].

Consider `CCOC(=O)Cc1cc(OC)c(OC)cc1/C(Cl)=C(\CO)c1ccc(OC)c(OC)c1`, for which the GI50 in assay [2] and in assay [3] was > 100 µM (inactive) throughout.

Turning to `C=C(C)C1Cc2c(cc(O)c3c(=O)c4ccccc4n(C)c23)O1` (centres undefined), the GI50 in [1] is 34 µM (inactive); in assay [3], 37 µM (inactive).

Regarding `COc1cc(C2c3cc4c(cc3[C@@H](Nc3cccc(CO)c3)C3COC(=O)[C@H]23)OCO4)cc(OC)c1O` (some centres undefined), the GI50 in assay [2] was 0.871 µM (active); in [6], 0.22 µM (active).

As to `Nc1ncnc2c1ncn2C1C(O)C=C(CO)C1O` (centres undefined), the GI50 in [2] and in assay [6] was > 625 µM (inactive) in each case.

Regarding `COC(=O)N[C@H](C(=O)NC(OCc1ccccc1)C1COC(C)(C)O1)C(C)O[Si](C)(C)C(C)(C)C` (some centres undefined), the GI50 in assay [5] is > 100 µM (inactive); in [6], 27.6 µM (inactive); in assay [8], > 100 µM (inactive); in [9] it was > 100 µM (inactive).

Take `OC1(c2ccc(Cl)cc2)c2ccc3ccccc3c2C2=N[C@H]3CCCC[C@@H]3N21` (some centres undefined): the GI50 is 1.19 µM (inactive) in assay [5]; 8.45 µM (inactive) in [6]; 18 µM (inactive) in assay [7]; 10.6 µM (inactive) in assay [8]; 3.13 µM (inactive) in assay [9].

Take `O=c1c2cc(I)ccc2nc(-c2cccs2)n1O`: the GI50 in [4] was 33.2 µM (inactive); in assay [6] it was 50 µM (inactive); in assay [8], 51.2 µM (inactive); in assay [9] it was 26.2 µM (inactive).

For `S=C=NCCc1ccccc1` [PHENETHYLISOTHIOCYANATE], the values for the GI50 in assay [1] and in assay [2] were 0.212 µM (active) and 0.753 µM (active), respectively.

The values are drawn from ChEMBL document CHEMBL1201862, “PubChem BioAssay data set” (2004).
